Eight compounds from patent US20260109732A1, “LIPID AMINES” (ModernaTX, Inc., priority 2021, published 2026) can be followed below.

Counter-ions that a name gives are not always drawn.

A short description of data set [1]: Encapsulation of mRNA nanoparticles with lipid amines using Ribogreen assay. It is filed as physicochemical. The method, boiled down:
(§1)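 DLS gave size and PDI, and Ribogreen gave encapsulation, for luciferase- or CFTR-mRNA nanoparticles (N:P 4.93). Particles came from IL1/DSPC/cholesterol/PEG-DMG-2K mixed at pH 4, mRNA-loaded, neutralized with TRIS pH 8.12, and then treated with lipid amine SA50 in pH 7.5 buffer.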

Data set [2] can be described thus: Diameter and PDI from DLS measurements of mRNA nanoparticles with lipid amines. It counts as physicochemical. The method, boiled down: as §1
The subject of data set [3] is HeLa cells. The experiment in a line: Luciferase Protein Expression Assay in HeLa Cells. The note with it: LNPs encapsulating Luciferase mRNA, 25 ng per well, N=4 wells; 5 h serum-free then 24 h; ONE-Glo. It counts as cell-based, Human. The essentials:
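Luminescence output, average RLU across N=4 wells, was measured with ONE-Glo after cell lysis. Before that, HeLa cells were exposed to 25 ng/well luciferase-mRNA nanoparticles (PBS control) for 5 h serum-free, then cultured overnight (24 h) in complete MEM.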

The subject of data set [4] is HeLa cells. As to the kind of experiment: CFTR Protein Expression Assay in HeLa Cells. It is filed as cell-based, Human. To be noted: LNPs encapsulating CFTR mRNA, N=4 wells; 5 h serum-free then 24 h; immunofluorescence vs PBS control. The essentials:
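Readout is fold-change in per-cell CFTR immunofluorescence intensity (488 nm, confocal imaging) relative to PBS-treated cells, from 4 replicate wells. LNPs encapsulating CFTR mRNA were applied serum-free for 5 h, followed by 24 h in complete medium before PFA fixation.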

The mark [5] stands for this setting: CFTR mRNA nanoparticle with lipid amine.
[6] abbreviates: Luciferase mRNA nanoparticle modified with lipid amine.

Regarding `CC(C)CCC[C@@H](C)[C@H]1CC[C@H]2[C@@H]3CC=C4C[C@@H](OC(=O)CC(=O)N(CCCN)CCCCNCCCN)CC[C@]4(C)[C@H]3CC[C@]12C.Cl.Cl.Cl` [SA59, (3S,8S,9S,10R,13R,14S,17R)-10,13-Dimethyl-17-((R)-6-methylheptan-2-yl)-2,3,4,7,8,9,10,11,12,13,14,15,16,17-tetradecahydro-1H-cyclopenta[a]phenanthren-3-yl 3-((3-aminopropyl)(4-((3-aminopropyl)amino)butyl)amino)-3-oxopropanoate trihydrochloride], the “% Encapsulation (Ribogreen)” value is 99.6% in data set [1] (setting [5]) and 99.7% in data set [1] (setting [6]). The “Diameter (nm)” value is 76.9 nm in data set [2] (setting [5]) and 74 nm in data set [2] (setting [6]). Further, the PDI in data set [2] (setting [5]) and in data set [2] (setting [6]) was 0.15 each time. In addition, the “Average Relative Light Units ± Standard Deviation” value in the data set on HeLa cells [3] was determined as 17590.1 ± 6267.4 Relative Light Units. The “Average fold-change in CFTR signal intensity per cell compared to buffer control ± standard deviation” value with HeLa cells [4] worked out at 5.6 ± 0.5 fold-change.

For the compound `CC(C)CCC[C@@H](C)[C@H]1CC[C@H]2[C@@H]3CC=C4C[C@@H](OC(=O)N(CCCCCCCC(C)N)CCC(C)N)CC[C@]4(C)[C@H]3CC[C@]12C` (stereo partly drawn) [SA151, (3S,8S,9S,10R,13R,14S,17R)-10,13-dimethyl-17-((R)-6-methylheptan-2-yl)-2,3,4,7,8,9,10,11,12,13,14,15,16,17-tetradecahydro-1H-cyclopenta[a]phenanthren-3-yl (3-aminobutyl)(8-aminononyl)carbamate dihydrochloride], the “% Encapsulation (Ribogreen)” value in data set [1] (setting [5]) came to 98.2%; in data set [1] (setting [6]), 95.8%. For the same compound, the results for the “Diameter (nm)” value in data set [2] (setting [5]) and in data set [2] (setting [6]) were 72.0 nm and 72 nm, respectively. Further, the PDI in data set [2] (setting [5]) is reported as 0.14; in data set [2] (setting [6]), 0.12. Further, in the data set on HeLa cells [3], the “Average Relative Light Units ± Standard Deviation” value amounted to 36345.5 ± 6730.7 Relative Light Units. For the same compound, in the data set with HeLa cells [4], the “Average fold-change in CFTR signal intensity per cell compared to buffer control ± standard deviation” value was determined as 20.2 ± 1.3 fold-change.

In the case of `CC[C@H](CC[C@@H](C)[C@H]1CC[C@H]2[C@@H]3CC=C4C[C@@H](OC(=O)N(CCCCCCCC(C)(C)N)CCC(C)(C)N)CC[C@]4(C)[C@H]3CC[C@]12C)C(C)C` [SA153, (3S,8S,9S,10R,13R,14S,17R)-17-((2R,5R)-5-ethyl-6-methylheptan-2-yl)-10,13-dimethyl-2,3,4,7,8,9,10,11,12,13,14,15,16,17-tetradecahydro-1H-cyclopenta[a]phenanthren-3-yl (3-amino-3-methylbutyl)(8-amino-8-methylnonyl)carbamate dihydrochloride], the “% Encapsulation (Ribogreen)” value in data set [1] (setting [5]) was 98.5%; in data set [1] (setting [6]) it was 95.8%. For the same compound, the “Diameter (nm)” value is listed as 69.3 nm in data set [2] (setting [5]) and 72 nm in data set [2] (setting [6]). In addition, the results for the PDI in data set [2] (setting [5]) and in data set [2] (setting [6]) were 0.12 and 0.15, respectively. Moreover, the “Average Relative Light Units ± Standard Deviation” value with HeLa cells [3] came to 35859.3 ± 5894.9 Relative Light Units. Moreover, the “Average fold-change in CFTR signal intensity per cell compared to buffer control ± standard deviation” value in the data set with HeLa cells [4] worked out at 17.5 ± 1.4 fold-change.

On to `CC[C@H](CC[C@@H](C)[C@H]1CC[C@H]2[C@@H]3CC=C4C[C@@H](OC(=O)CCC(=O)N(CCCCCCCC(C)(C)N)CCC(C)(C)N)CC[C@]4(C)[C@H]3CC[C@]12C)C(C)C` [SA165, (3S,8S,9S,10R,13R,14S,17R)-17-((2R,5R)-5-ethyl-6-methylheptan-2-yl)-10,13-dimethyl-2,3,4,7,8,9,10,11,12,13,14,15,16,17-tetradecahydro-1H-cyclopenta[a]phenanthren-3-yl 4-((3-amino-3-methylbutyl)(8-amino-8-methylnonyl)amino)-4-oxobutanoate dihydrochloride], for which the “% Encapsulation (Ribogreen)” value in data set [1] (setting [5]) and in data set [1] (setting [6]) was 98.8% in each case. Further, the “Diameter (nm)” value in data set [2] (setting [5]) is 69.8 nm; in data set [2] (setting [6]) it was 72 nm. In addition, the PDI in data set [2] (setting [5]) came to 0.12; in data set [2] (setting [6]), 0.13. Besides, the “Average Relative Light Units ± Standard Deviation” value with HeLa cells [3] was determined as 33585.6 ± 7766.5 Relative Light Units. The “Average fold-change in CFTR signal intensity per cell compared to buffer control ± standard deviation” value with HeLa cells [4] is 14.0 ± 0.5 fold-change.

In the case of `CC(C)CCC[C@@H](C)[C@H]1CC[C@H]2[C@@H]3CC=C4C[C@@H](OC(=O)CN(CCCCCCCCN)C(=O)CCCCN)CC[C@]4(C)[C@H]3CC[C@]12C` [SA122, (3S,8S,9S,10R,13R,14S,17R)-10,13-Dimethyl-17-((R)-6-methylheptan-2-yl)-2,3,4,7,8,9,10,11,12,13,14,15,16,17-tetradecahydro-1H-cyclopenta[a]phenanthren-3-yl N-(8-aminooctyl)-N-(5-aminopentanoyl)glycinate dihydrochloride], the “% Encapsulation (Ribogreen)” value in data set [1] (setting [5]) is on record as 98.6%; in data set [1] (setting [6]) it was 99.4%. Also, the “Diameter (nm)” value in data set [2] (setting [5]) stood at 83.5 nm; in data set [2] (setting [6]), 75 nm. Also, the results for the PDI in data set [2] (setting [5]) and in data set [2] (setting [6]) were 0.13 and 0.15, respectively. Besides, in the data set on HeLa cells [3], the “Average Relative Light Units ± Standard Deviation” value was determined as 29605.6 ± 6326.9 Relative Light Units. In addition, the “Average fold-change in CFTR signal intensity per cell compared to buffer control ± standard deviation” value in the data set with HeLa cells [4] is reported as 14.8 ± 1.1 fold-change.

As for `CC[C@H](CC[C@@H](C)[C@H]1CC[C@H]2[C@@H]3CC=C4C[C@@H](OC(=O)CCC(=O)N(CCCC(C)(C)N)CCC(C)(C)N)CC[C@]4(C)[C@H]3CC[C@]12C)C(C)C` [SA167, (3S,8S,9S,10R,13R,14S,17R)-17-((2R,5R)-5-ethyl-6-methylheptan-2-yl)-10,13-dimethyl-2,3,4,7,8,9,10,11,12,13,14,15,16,17-tetradecahydro-1H-cyclopenta[a]phenanthren-3-yl 4-((3-amino-3-methylbutyl)(4-amino-4-methylpentyl)amino)-4-oxobutanoate dihydrochloride], the “% Encapsulation (Ribogreen)” value in data set [1] (setting [5]) worked out at 100%; in data set [1] (setting [6]), 98.7%. The “Diameter (nm)” value turned out to be 75.1 nm in data set [2] (setting [5]) and 75 nm in data set [2] (setting [6]). The figures for the PDI in data set [2] (setting [5]) and in data set [2] (setting [6]) were 0.16 and 0.15, respectively. Further, the “Average Relative Light Units ± Standard Deviation” value in the data set with HeLa cells [3] was found to be 38742.4 ± 6037.5 Relative Light Units. Further, the “Average fold-change in CFTR signal intensity per cell compared to buffer control ± standard deviation” value in the data set on HeLa cells [4] is 14.9 ± 1.4 fold-change.

As to `CC[C@H](CC[C@@H](C)[C@H]1CC[C@H]2[C@@H]3CC=C4C[C@@H](OC(=O)CCCC(=O)N(CCCCCCCC(C)(C)N)CCC(C)(C)N)CC[C@]4(C)[C@H]3CC[C@]12C)C(C)C` [SA155, (3S,8S,9S,10R,13R,14S,17R)-17-((2R,5R)-5-ethyl-6-methylheptan-2-yl)-10,13-dimethyl-2,3,4,7,8,9,10,11,12,13,14,15,16,17-tetradecahydro-1H-cyclopenta[a]phenanthren-3-yl 5-((3-amino-3-methylbutyl)(8-amino-8-methylnonyl)amino)-5-oxopentanoate dihydrochloride], the “% Encapsulation (Ribogreen)” value stood at 99.4% in data set [1] (setting [5]) and 98.9% in data set [1] (setting [6]). The “Diameter (nm)” value in data set [2] (setting [5]) is listed as 71.1 nm; in data set [2] (setting [6]), 73 nm. Besides, the PDI was found to be 0.13 in data set [2] (setting [5]) and 0.11 in data set [2] (setting [6]). The “Average Relative Light Units ± Standard Deviation” value with HeLa cells [3] amounted to 31922.9 ± 8053.8 Relative Light Units. In addition, the “Average fold-change in CFTR signal intensity per cell compared to buffer control ± standard deviation” value in the data set with HeLa cells [4] is recorded as 12.2 ± 1.0 fold-change.

For `CC[C@H](CC[C@@H](C)[C@H]1CC[C@H]2[C@@H]3CC=C4C[C@@H](OC(=O)N(CCCCCCCC(C)N)CCC(C)N)CC[C@]4(C)[C@H]3CC[C@]12C)C(C)C` (stereo partly drawn) [SA144, (3S,8S,9S,10R,13R,14S,17R)-17-((2R,5R)-5-ethyl-6-methylheptan-2-yl)-10,13-dimethyl-2,3,4,7,8,9,10,11,12,13,14,15,16,17-tetradecahydro-1H-cyclopenta[a]phenanthren-3-yl (3-aminobutyl)(8-aminononyl)carbamate dihydrochloride], the “% Encapsulation (Ribogreen)” value in data set [1] (setting [5]) was found to be 98.8%; in data set [1] (setting [6]) it was 99.2%. For the same compound, the “Diameter (nm)” value was 69.3 nm in data set [2] (setting [5]) and 71 nm in data set [2] (setting [6]). Further, the figures for the PDI in data set [2] (setting [5]) and in data set [2] (setting [6]) were 0.12 and 0.15, respectively. For the same compound, the “Average Relative Light Units ± Standard Deviation” value with HeLa cells [3] was 33357.5 ± 5288.8 Relative Light Units. In the data set with HeLa cells [4], the “Average fold-change in CFTR signal intensity per cell compared to buffer control ± standard deviation” value is reported as 17.9 ± 2.1 fold-change.
